Source: patent US20160362416A1, “ANTIVIRAL COMPOUNDS” (Gilead Sciences, Inc., priority 2012, published 2016)

Columns and labels:
[1] = tested on: stable HCV 2a JFH-1 Rluc replicon cells (L31 present in NS5A); assay: HCV genotype 2a JFH-1 RLuc replicon reporter assay; format: cell-based; conditions: Hepatitis C virus, 72 h, read-out: 2a JFH (nM)
[2] = tested on: Y93N in genotype 1a NS5A replicon; assay: Resistance mutant replicon assay, genotype 1a NS5A Y93N; format: cell-based, HCV; conditions: Hepatitis C virus, read-out: 1a Y93N (nM)
Method: (§1) Evaluation of cell-based anti-HCV activity: Antiviral potency (EC50) was determined using a Renilla luciferase (RLuc)-based HCV replicon reporter assay. To perform the assay for genotype 1 and 2a JFH-1, stable HCV 1a RLuc replicon cells (harboring a dicistronic genotype 1a H77 replicon that encodes a RLuc reporter), stable HCV lb RLuc replicon cells (harboring a dicistronic genotype 1b Conl replicon that encodes a RLuc reporter), or stable HCV 2a JFH-1 Rluc replicon cells (harboring a dicistronic genotype 2a JFH-1 replicon that encodes a RLuc reporter; with L31 present in NS5A) were dispensed into 384-well plates for EC50 assays. To perform the assay for genotype 2a (with M31 present in NS5A) or 2b, NS5A chimeric genotype 2a JFH-1 replicons that encodes a RLuc-Neo reporter and either genotype 2a J6 strain NS5A gene or genotype 2b MD2b-1 strain NS5A gene (both with M31 present) respectively, were either transiently transfected (t) into Huh-Lunet cells or were established as stably replicating replicon cells (s) is provided. Either cells were dispensed into 384-well plates for EC50 assays. To perform the assay for genotype 3 and 4, NS5A chimeric genotype 1b Conl replicons that encodes a Pi-RLuc reporter and either genotype 3a S52 strain NS5A gene or genotype 4a ED43 strain NS5A gene respectively, were transiently transfected (t) into Huh-Lunet cells, which were subsequently dispensed into 384-well plates. Compounds were dissolved in DMSO at a concentration of 10 mM and diluted in DMSO either manually or using an automated pipeting instrument. Serially 3-fold diluted compounds were either manually mixed with cell culture media and added to the seeded cells or directly added to the cells using an automated instrument. DMSO was used as a negative (solvent; no inhibition) control, and the protease inhibitor ITMN-191 was included at a concentration >100×EC50 as a positive control. 72 hours later, cells were lysed and Renilla luciferase activity quantified as recommended by the manufacturer (Promega-Madison, Wis.). Non-linear regression was performed to calculate EC50 values.
(§2) To determine the antiviral potency (EC50) against resistance mutants, resistance mutations, including M28T, Q30R, Q30H, Q30E, L31M, Y93C, Y93H, and Y93N in genotype 1a NS5A, Y93H and L31V/Y93H in genotype 1b NS5A, and Y93H for in genotype 3a NS5A, were introduced individually into either 1a Pi-Rluc or 1b Pi-Rluc replicons by site directed mutagenesis. Replicon RNA of each resistant mutant was transiently transfected into Huh-7-derived cured-51 cells and antiviral potency was determined on these transfected cells as described above.

[3] = tested on: stable HCV 1a RLuc replicon cells (genotype 1a H77 replicon); assay: HCV genotype 1a RLuc replicon reporter assay; format: cell-based; conditions: Hepatitis C virus; stable genotype 1a H77 RLuc replicon cells, 72 hours
[4] = tested on: NS5A chimeric genotype 2a JFH-1 replicon with genotype 2a J6 strain NS5A gene (M31); assay: HCV genotype 2a J6 NS5A chimeric replicon assay, transient (t); format: cell-based; conditions: Hepatitis C virus, 72 h, read-out: 2a J6 (t) (nM)
[5] = tested on: Y93H in genotype 3a NS5A replicon; assay: Resistance mutant replicon assay, genotype 3a NS5A Y93H; format: cell-based, HCV; conditions: Hepatitis C virus, read-out: 3a Y93H (nM)
Method: as §1, §2

[6] = tested on: stable HCV 1b RLuc replicon cells (genotype 1b Con1 replicon); assay: HCV genotype 1b RLuc replicon reporter assay; format: cell-based; conditions: Hepatitis C virus; stable genotype 1b Con1 RLuc replicon cells, 72 hours
How it was run: (§3)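 Chimeric replicons for 3a and 4a use a Pi-RLuc reporter and were transiently transfected into Huh-Lunet cells; the 2b chimera (RLuc-Neo) was likewise transient in Huh-Lunet; 1b cells are stable. Cells were exposed to 3-fold serial compound dilutions for 72 h, then lysed. EC50s came from non-linear regression of Renilla luciferase signal.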

[7] = tested on: NS5A chimeric genotype 1b Con1 replicon with genotype 3a S52 strain NS5A gene; assay: HCV genotype 3a NS5A chimeric replicon assay; format: cell-based; conditions: Hepatitis C virus, 72 h, read-out: 3a (nM)
How it was run: as §3

[8] = tested on: NS5A chimeric genotype 2a JFH-1 replicon with genotype 2b MD2b-1 strain NS5A gene (M31); assay: HCV genotype 2b NS5A chimeric replicon assay, transient (t); format: cell-based; conditions: Hepatitis C virus, 72 h, read-out: 2b (t) (nM)
Method: as §1

[9] = tested on: NS5A chimeric genotype 1b Con1 replicon with genotype 4a ED43 strain NS5A gene; assay: HCV genotype 4a NS5A chimeric replicon assay; format: cell-based; conditions: Hepatitis C virus, 72 h, read-out: 4a (s) (nM)
[10] = tested on: Y93H in genotype 1a NS5A replicon; assay: Resistance mutant replicon assay, genotype 1a NS5A Y93H; format: cell-based, HCV; conditions: Hepatitis C virus, read-out: 1a Y93H (nM)
Method: as §1, §2

[11] = tested on: Q30E in genotype 1a NS5A replicon; assay: Resistance mutant replicon assay, genotype 1a NS5A Q30E; format: cell-based, HCV; conditions: Hepatitis C virus, read-out: 1a Q30E (nM)
Method: as §1, §2

[12] = tested on: NS5A chimeric genotype 2a JFH-1 replicon with genotype 2b MD2b-1 strain NS5A gene (M31); assay: HCV genotype 2b NS5A chimeric replicon assay, stable (s); format: cell-based; conditions: Hepatitis C virus, 72 h, read-out: 2b (s) (nM)

Structure (SMILES)	EC50 [1]	EC50 [2]	EC50 [3]	EC50 [4]	EC50 [5]	EC50 [6]	EC50 [7]	EC50 [8]	EC50 [9]	EC50 [10]	EC50 [11]	EC50 [12]
COC(=O)N[C@H](C(=O)N1[C@@H](C)CC[C@H]1c1ncc(-c2ccc3c(c2)COc2cc4c(ccc5nc([C@@H]6C[C@H](C)CN6C(=O)[C@@H](NC(=O)OC)C6C[C@@H](C)O[C@H](C)C6)[nH]c54)cc2-3)[nH]1)C(C)C (stereo partly drawn) [Example AV, methyl {(2S)-1-[(2S,5S)-2-(5-{2-[(2S,4S)-1-{(2S)-2-[(2R,6R)-2,6-dimethyltetrahydro-2H-pyran-4-yl]-2-[(methoxycarbonyl)amino]acetyl}-4-methylpyrrolidin-2-yl]-1,11-dihydroisochromeno[4′,3′:6,7]naphtho[1,2-d]imidazol-9-yl}-1H-imidazol-2-yl)-5-methylpyrrolidin-1-yl]-3-methyl-1-oxobutan-2-yl}carbamate]	0.011 nM	1.05 nM	36 pM	0.008 nM	2.39 nM	36 pM	0.029 nM	0.015 nM	0.013 nM	0.14 nM		
COC(=O)N[C@H](C(=O)N1[C@H](c2ncc(-c3ccc4c(c3)COc3cc5c(ccc6nc([C@@H]7CC[C@H](C)N7C(=O)[C@@H](NC(=O)OC)C7C[C@@H](C)O[C@H](C)C7)[nH]c65)cc3-4)[nH]2)C[C@@H]2CCC[C@@H]21)C(C)C (stereo partly drawn) [Example AY, methyl {(2S)-1-[(2S,3aS,6aS)-2-(5-{2-[(2S,5S)-1-{(2S)-2-[(2R,6R)-2,6-dimethyltetrahydro-2H-pyran-4-yl]-2-[(methoxycarbonyl)amino]acetyl}-5-methylpyrrolidin-2-yl]-1,11-dihydroisochromeno[4′,3′:6,7]naphtho[1,2-d]imidazol-9-yl}-1H-imidazol-2-yl)hexahydrocyclopenta[b]pyrrol-1(2H)-yl]-3-methyl-1-oxobutan-2-yl}carbamate]	0.018 nM	1.18 nM	27 pM	0.013 nM	8.48 nM	28 pM	0.023 nM	0.03 nM	0.011 nM	0.531 nM		
COC(=O)N[C@H](C(=O)N1[C@@H](C)CC[C@H]1c1ncc(-c2ccc3c(c2)COc2cc4c(ccc5nc([C@@H]6C[C@H](C)CN6C(=O)[C@@H](NC(=O)OC)C6CCOCC6)[nH]c54)cc2-3)[nH]1)C(C)C [Comp 13, reference compound]		2.13 nM	25 pM		4.4 nM	48 pM			4.4 nM	1.07 nM	0.371 nM	0.048 nM
COC(=O)N[C@H](C(=O)N1[C@H](c2ncc(-c3ccc4c(c3)COc3cc5c(ccc6nc([C@@H]7CC[C@H](C)N7C(=O)[C@@H](NC(=O)OC)C7CCOCC7)[nH]c65)cc3-4)[nH]2)C[C@@H]2CCC[C@@H]21)C(C)C [Comp 8, reference compound]		4.58 nM	28 pM			40 pM	0.071 nM			1.9 nM	0.979 nM	0.113 nM
CC[C@H]1C[C@@H](c2ncc(-c3ccc4c(c3)COc3cc5c(ccc6nc([C@@H]7CC[C@H](C)N7C(=O)[C@@H](NC(=O)OC)C(C)C)[nH]c65)cc3-4)[nH]2)N(C(=O)[C@@H](NC(=O)OC)C2C[C@@H](C)O[C@H](C)C2)C1 (stereo partly drawn) [Example AE, Methyl [(1S)-1-[(2R,6R)-2,6-dimethyltetrahydro-2H-pyran-4-yl]-2-{(2S,4S)-4-ethyl-2-[5-(2-{(2S,5S)-1-[N-(methoxycarbonyl)-L-valyl]-5-methylpyrrolidin-2-yl}-1,11-dihydroisochromeno[4′,3′:6,7]naphtho[1,2-d]imidazol-9-yl)-1H-imidazol-2-yl]pyrrolidin-1-yl}-2-oxoethyl]carbamate]	0.012 nM	1.12 nM	24 pM	0.042 nM	6.93 nM	22 pM	0.027 nM	0.038 nM	0.011 nM	0.23 nM		
CC[C@H](C)[C@H](NC(=O)OC)C(=O)N1[C@@H](C)CC[C@H]1c1nc2ccc3cc4c(cc3c2[nH]1)OCc1cc(-c2cnc([C@@H]3CC[C@H](C)N3C(=O)[C@@H](NC(=O)OC)C3C[C@@H](C)O[C@H](C)C3)[nH]2)ccc1-4 (stereo partly drawn) [Example BL, methyl{(2S,3S)-1-[(2S,5S)-2-(9-{2-[(2S,5S)-1-{(2S)-2-[(2R,6R)-2,6-dimethyltetrahydro-2H-pyran-4-yl]-2-[(methoxycarbonyl)amino]acetyl}-5-methylpyrrolidin-2-yl]-1H-imidazol-5-yl}-1,11-dihydroisochromeno[4′,3′:6,7]naphtho[1,2-d]imidazol-2-yl)-5-methylpyrrolidin-1-yl]-3-methyl-1-oxopentan-2-yl}carbamate]	0.009 nM	0.531 nM	18 pM	0.022 nM	1.05 nM	24 pM	0.014 nM	0.021 nM	0.006 nM	0.228 nM		
COC(=O)N[C@H](C(=O)N1[C@@H](C)CC[C@H]1c1ncc(-c2ccc3c(c2)COc2cc4c(ccc5nc([C@@H]6C[C@@H]7CCC[C@@H]7N6C(=O)[C@@H](NC(=O)OC)C6C[C@@H](C)O[C@H](C)C6)[nH]c54)cc2-3)[nH]1)C(C)C (stereo partly drawn) [Example AX, methyl {(2S)-1-[(2S,5S)-2-(5-{2-[(2S,3aS,6aS)-1-{(2S)-2-[(2R,6R)-2,6-dimethyltetrahydro-2H-pyran-4-yl]-2-[(methoxycarbonyl)amino]acetyl}octahydrocyclopenta[b]pyrrol-2-yl]-1,11-dihydroisochromeno[4′,3′:6,7]naphtho[1,2-d]imidazol-9-yl}-1H-imidazol-2-yl)-5-methylpyrrolidin-1-yl]-3-methyl-1-oxobutan-2-yl}carbamate]	0.012 nM	0.885 nM	17 pM	0.046 nM	4.97 nM	22 pM	0.015 nM		0.01 nM	0.48 nM		0.027 nM
